Columns and labels:
ERα = target: T1, ERα (Homo sapiens, UniProt P03372); assay: Degradation effect on ERα in MCF-7 cells (ERα Duoset ELISA); type: cell-based; conditions: MCF7; compound at 3 μM, relative to positive control AZD-9496 at 3 μM set to 100%
T1 construct: host or cells: MCF-7
T1 sequence (P03372 1-595): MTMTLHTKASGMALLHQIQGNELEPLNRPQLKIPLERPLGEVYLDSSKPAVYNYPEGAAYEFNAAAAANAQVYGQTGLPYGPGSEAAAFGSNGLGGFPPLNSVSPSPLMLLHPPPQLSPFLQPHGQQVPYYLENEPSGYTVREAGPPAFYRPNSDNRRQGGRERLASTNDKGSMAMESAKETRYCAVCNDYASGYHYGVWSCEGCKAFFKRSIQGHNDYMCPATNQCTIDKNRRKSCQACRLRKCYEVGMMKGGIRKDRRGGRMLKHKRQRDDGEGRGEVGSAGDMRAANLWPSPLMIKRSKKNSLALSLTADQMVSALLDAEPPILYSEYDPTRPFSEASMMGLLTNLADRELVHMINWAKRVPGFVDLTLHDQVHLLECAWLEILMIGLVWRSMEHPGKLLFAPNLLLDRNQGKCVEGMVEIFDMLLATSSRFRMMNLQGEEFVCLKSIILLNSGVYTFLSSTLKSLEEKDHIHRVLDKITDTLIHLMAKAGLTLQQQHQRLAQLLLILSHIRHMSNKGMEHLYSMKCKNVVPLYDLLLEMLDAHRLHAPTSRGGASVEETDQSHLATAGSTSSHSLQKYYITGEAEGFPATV
Description: In order to determine the degradation effect on ER induced by the compound of present invention, the following method was used to determine the degradation effect of the compounds of the present invention on ER.
MCF-7 cell line (TChu 74, Cell Bank of Chinese Academy of Sciences typical culture preservation Committee)
ERα Duoset Kit (#DYC5715E, R&D System)
MCF-7 cells well incubated in DMEM/F-12 medium containing 10% FBS.
On the first day of the experiment, MCF-7 cells were resuspended in DMEM/F-12 medium containing 10% FBS treated by activated carbon, then inoculated into a 48-well plate with a density of 50,000 cells/well and incubated for 22-24 hours.
On the second day of the experiment, the test compound was diluted with medium and added to a 48-well plate. The ERα-capture antibody was diluted to 1 μg/ml with PBS, and added with 100 μl/well to a 96-well plate at 100 μl/well. The plate was sealed and coated overnight at room temperature.
On the third day of the experiment, the coated 96-well plate was washed twice with PBS, added with a sealing solution (1% BSA in PBS) at 110 μl/well and sealed for 1 hour at room temperature. The 48-well plate was washed once and the residual liquid was removed. Then, 60 μl of lysis buffer (6 M urea, 1 mM EDTA, 0.5% Triton X-100, 1 mM PMSF, Protease Inhibitor cocktail) was added to each well. After lysis on ice for 15 minutes, the diluent (1 mM EDTA, 0.5% TritonX-100 dissolved in PBS) was added. The cell-diluted lysate was transferred to a 96-well plate at 100 μl/well, then the plate was incubated at room temperature for 2 hours. The diluted primary antibody was added after the plate was washed 4 times with a washing liquid (PBST). After incubation for 1 hour, the 96-well plate was washed 4 times, and the second antibody was added, then the plate was incubated for 30 minutes. After the plate was washed with a washing liquid, TMB chromogenic solution was added and incubated for 15 minutes. The reaction was stopped by the addition of 1 M H2SO4, then the light absorption at a wavelength of 450 nm was read. The degradation effect of the compound AZD9496 at 3 μM was set to 100%, the Emax of other compounds=(ODnegative control−ODcompound 3 μM)/(ODnegative control−ODAZD9496 3 μM)×100%, and the negative control was a well with DMSO.

[1] = Pharmacokinetics assay in BALB/C nude mice after intragastrical administration; type: in vivo; conditions: female, mouse, po, 3 mg/kg, plasma; for Vd/F: read-out: Apparent Distribution Volume Vz/F; for AUC: read-out: Area Under Curve AUC; for CL/F: read-out: Clearance CL/F; for half-life: read-out: Half-Life t1/2 (converted); for MRT: read-out: Mean Residence Time MRT; for Cmax: read-out: Plasma Conc. Cmax
Description: BALB/C nude mice were used as test animals. The drug concentration in plasma at different time points was determined by LC/MS/MS after intragastrical administration of the compounds of Examples 1, 7, 8, 10, 11, 14, 16, 39 and 42 to BALB/C nude mice. The pharmacokinetic behavior of the compounds of the compounds of the present invention was studied and evaluated in BALB/C nude mice.
Eighty-one (81) female BALB/C nude mice, were equally divided into 9 groups, which were purchased from SINO-BRITSH SIPPR/BK LAB. ANIMAL LTD., CO, with Certificate No.: SOCK (Shanghai) 2008-0016.
The appropriate amount of each test compound was weighed, and successively added with 9% PEG400+0.5% tween 80+0.5% PVP+90% aqueous solution of 0.5% CMC.
After an overnight fasting, 81 female BALB/C nude mice were equally divided into 9 groups; and administered the test compounds intragastrically at an administration volume of 0.2 mL/10 g.
81 female Balb/C nude mice were administered the test compounds intragastrically after an overnight fasting. Blood (0.1 mL) was taken (3 animals at each time point) at 0.5, 1.0, 2.0, 4.0, 6.0, 8.0, 11.0, and 24.0 h after administration. The samples were stored in heparinized test tubes, and centrifuged for 10 minutes at 3,500 rpm to separate the blood plasma. The plasma samples were stored at −20° C.
The concentration of the prototype drug in the plasma and in the solution to be administered was determined by liquid chromatography tandem mass spectrometry (LC/MS MS).

Row | Structure (SMILES) | Emax at 3 µM (ERα) [%] | Vd/F [1] [L/kg] | AUC [1] [ng·h/mL] | CL/F [1] [mL/min/kg] | half-life [1] [h] | MRT [1] [h] | Cmax [1] [ng/mL]
1 | CC(C)c1ccc(N2[C@H](c3ccc(/C=C/C(=O)O)cc3)c3ccc(-c4cnn(C)c4)cc3C[C@H]2C)cc1 [Example 42, (E)-3-(4-((1R,3R)-2-(4-Isopropylphenyl)-3-methyl-6-(1-methyl-1H-pyrazol-4-yl)-1,2,3,4-tetrahydroisoquinolin-1-yl)phenyl)acrylic acid] | 112 | 3.1 | 11200 | 4.46 | 8.04 | 9.21 | 1270
2 | CCn1cc(-c2ccc3c(c2)C[C@@H](C)N(c2ccc(C(C)C)cc2)[C@@H]3c2ccc(/C=C/C(=O)O)cc2)cn1 [Example 8, (E)-3-(4-((1R,3R)-6-(1-Ethyl-1H-pyrazol-4-yl)-2-(4-isopropylphenyl)-3-methyl-1,2,3,4-tetrahydroisoquinolin-1-yl)phenyl)acrylic acid] | 129 | 1.51 | 9380 | 5.33 | 3.27 | 5.26 | 1620
3 | C[C@@H]1Cc2cc(-c3cnn(C)c3)ccc2[C@@H](c2ccc(/C=C/C(=O)O)cc2)N1c1ccc(C2CC2)cc1 [Example 11, (E)-3-(4-((1R,3R)-2-(4-Cyclopropylphenyl)-3-methyl-6-(1-methyl-1H-pyrazol-4-yl)-1,2,3,4-tetrahydroisoquinolin-1-yl)phenyl)acrylic acid] | 134 | 1.48 | 16400 | 3.06 | 5.58 | 7.9 | 1890

Other lines, results leading:

Row | Emax at 3 µM (ERα) [%] | Vd/F [1] [L/kg] | AUC [1] [ng·h/mL] | CL/F [1] [mL/min/kg] | half-life [1] [h] | MRT [1] [h] | Cmax [1] [ng/mL] | Structure (SMILES)
4 | 118 | 1.23 | 12900 | 3.88 | 3.67 | 6.8 | 1280 | CCn1cc(-c2ccc3c(c2)CC(C)N(c2ccc(C(C)C)cc2)C3c2ccc(/C=C/C(=O)O)cc2)cn1 [Example 7, (E)-3-(4-((1R,3R/1S,3S)-6-(1-Ethyl-1H-pyrazol-4-yl)-2-(4-isopropylphenyl)-3-methyl-1,2,3,4-tetrahydroisoquinolin-1-yl)phenyl)acrylic acid]
5 | 147 | 1.26 | 14800 | 3.39 | 4.29 | 6.73 | 2480 | CCn1cc(-c2ccc3c(c2)C[C@@H](C)N(c2ccc(C4CC4)cc2)[C@@H]3c2ccc(/C=C/C(=O)O)cc2)cn1 [Example 14, (E)-3-(4-((1R,3R)-2-(4-Cyclopropylphenyl)-6-(1-ethyl-1H-pyrazol-4-yl)-3-methyl-1,2,3,4-tetrahydroisoquinolin-1-yl)phenyl)acrylic acid]
6 | 115 | 0.865 | 14400 | 3.48 | 2.87 | 4.53 | 3440 | CCc1ccc(N2C(C)Cc3cc(-c4cnn(C)c4)ccc3C2c2ccc(/C=C/C(=O)O)cc2)cc1 [Example 1, (E)-3-(4-((1R,3R/1S,3S)-2-(4-Ethylphenyl)-3-methyl-6-(1-methyl-1H-pyrazol-4-yl)-1,2,3,4-tetrahydroisoquinolin-1-yl)phenyl)acrylic acid]
